Key:
[1] = test system: PC3^Luc metastatic bone lesions; test: fDM analysis of metastatic bone lesions of PC3Luc model; assay type: in vivo, SCID mice; settings: for percentage of increased ADC (fDM), representative treated animal: docetaxel 40 mg/kg/wk×3
Protocol: (§1) Mice. Male SCID mice (Charles River Laboratories, Wilmington, Mass.) were housed in specific pathogen free rooms at The University of Michigan AAALAC, International accredited facilities. For implantation of PC3^Luc cells, mice were anesthetized with 1.75% isotluorane/air anesthesia and 2×10^5 cells in 100 μl of sterile Dulbecco's PBS lacking Ca^+2and Mg^+2 (DPBS) were administered into the left ventricle of the heart.
(§2) Magnetic Resonance Imaging. […] For MRI examination, mice were anesthetized with a 2% […] and maintained at 37 C, using a heated water bed, inside a 9.4-T Varian MR scanner (120-mm clear horizontal bore, Varian, Palo Alto, Calif.) and a double-tuned volume radiofrequency coil. A trace diffusion-weighted multi-slice spin echo sequence was used to acquire 15 slices with two different diffusion weightings (b1=184 s/mm^2, =1106 s/mm^2, slice thickness=0.5 mm, image matrix64×128, field of view=15×15 mm; TE=40 ms, TR=3.5 s). The z-gadient first moment was zeroed to reduce the dominant source of motion artifact as well as a 32-point navigator echo was prepended to each phase-encode echo. The phase deviation of each navigator echo relative to their mean was subtracted from the respective image echoes prior to the phase-encode Fourier transform. Images were acquired prior to treatment and subsequently 2 times per week. The low b-factor images were essentially T2-weighted to allow tumor volume measurements. The tumor boundary was manually defined on each slice and then integrated across slices to provide a volume estimate.
Image Registration and fDM. An important part of fDM analysis is the registration of post-treatment ADC maps to baseline pretreatment ADC maps. Image registration was performed using an automated linear affine coregistration algorithm to maximize mutual information between the two temporally distinct three-dimensional data sets (see, e.g., Meyer C R, et al., Med Image Anal 1997; 1:195-206; herein incorporated by reference in its entirety). Following registration and segmentation of voxels within the tumor both at baseline and on day 4, fDM statistics were calculated (I-Response™, Cedara Software, Mississauga, Ontario). Firstly, ADC values of voxels post therapy were plotted as a function of baseline ADC values. These voxels were then further segmented into three regions based on an upper and lower threshold of ADC change. Tumor voxels with an ADC increase above the upper threshold were depicted as red, whereas voxels that had decreased below the lower threshold were depicted as blue.

PC3^Luc tumor cells = test: Bioluminescence imaging of PC3Luc metastatic prostate cancer model; assay type: in vivo, SCID mice; settings: docetaxel 40 mg/kg/wk×3, n=9; controls rose continuously
Protocol: Cell Lines. PC3 cells were transfected with a luciferase-encoding pLazarus retroviral construct using Fugene 6 (Roche Applied Science, Indianapolis, Ind.) as per manufacturer's instructions. Wildtype PC3 cells were cultured in RPMI-1640 supplemented with 10% FBS whereas transfected cells (PC3^Luc were maintained in selection media supplemented with 200 μg/ml G418 (Invitrogen; Carlsbad, Calif.).
as §1
Bioluminescence Detection. […] Bioluminescence studies were initiated prior to treatment for baseline values and performed throughout the experiment. For these studies, mice were anesthetized with a 2% isofluorane/air mixture and given a single i.p. dose of 150 mg/kg D-luciferin (Promega; Madison, Wis.) in normal saline. […] Results were analyzed using Living Image® software provided with the Xenogen imaging system. Signal intensity was quantified as the sum of all detected photon counts within a uniform region-of-interest (ROI) manually placed during data post processing.

[2] = test system: PC3^Luc metastatic bone lesions; test: MRI tumor volume of PC3Luc bone lesions; assay type: in vivo, SCID mice
Source text: as §2

9L tumors [3] = test: Histopathology (H&E) of fDM regions of 9L tumors; assay type: in vivo, rat; settings: 6.67 mg/kg BCNU; ×40 objective
Protocol: Histopathology. In a separate study consisting of eight animals, two animals per treatment group were imaged pretreatment and again at 6 to 7 days posttherapy. Following the second imaging session, animals were euthanized, and the brains were fixed in 10% paraformaldehyde. After 48 hours, fixed tissues were transferred to 70% ethanol and embedded in paraffin. Formalin-fixed paraffin-embedded specimens were serially sectioned and slide-mounted. Sections were stained with hematoxylin and eosin (H&E) and compared to fDMs.

9L tumors [4] = test: fDM / diffusion MRI of intracerebral 9L tumors after BCNU; assay type: in vivo, rat; settings: for group mean VR: ±SEM
Protocol: (§3) Intracranial Tumor Implantation. All animal works were carried out in the animal facility of the University of Michigan (Ann Arbor, Mich.) in accordance with federal, local, and institutional guidelines. Intracerebral brain tumors were implanted in male Fischer 344 rats (Charles River Breeding Laboratories, Wilmington, Mass.) weighing between 125 and 150 g. Animals were anesthesized by intraperitoneal administration of a ketamine (87 mg/kg)/xylazine (13 mg/kg) mixture. A small skin incision was made over the right hemisphere, and a 1-mm-diameter burr hole was drilled through the skull. A sterile suspension of 1×10^5 9L cells in 5 μl of serum-free medium was introduced through a 27-gauge needle inserted to a depth of 3 mm. Rats were allowed to recover after tilling the burr hole with bone wax and suturing the skin closed.
(§4) Chemotherapy. Thirty-three animals with 9L tumors were entered into the study. When in vivo tumor volumes had reached […] were divided into four groups. Group 1 received 0.1 ml of drug vehicle (10% ethanol) and was used as a control group (n=7). Groups 2 to 4 received 6.65 mg/kg BCNU (n=7), 13.3 mg/kg BCNU (n=11), and 26.6 mg/kg BCNU (n=8), respectively, diluted in 10% ethanol. All treatments were administered by a single intraperitoneal injection on day 0. T2-weighted (T2, MRI transverse relaxation time) and diffusion MRI were performed every other day posttherapy to measure volumetric and cell density changes, respectively. Animal survival data were also obtained for all groups.
(§5) Diffusion MRI. Maps of tumor ADC values were acquired every other day up to 14 days posttherapy using a previously described method (see, e.g., Chenevert T L, et al., J Natl Cancer Inst. 2000; 92:2029-2036; herein incorporated by reference in its entirety). Briefly, a trace diffusion-weighted multislice spin echo sequence (with motion compensation and navigator echo) was used to acquire 13 slices with two different diffusion weightings [b1=100 sec/mm^2; b2=1248 sec/mm^2; image slice thickness=1 mm; image matrix=128×128 (0-256); field of view=30×30 mm; echo time=60 milliseconds]. During all MRI procedures, the animals were anesthesized with 1.5% isoflurane, and body temperature was maintained at 37° C. using a heated water-recirculating pad. The images acquired with b1 were essentially T2-weighted images, and these were used to segment the tumor from the normal brain for volumetric analysis using an “in-house” region drawing tool developed in MATLAB (Natick, Mass.).
Image Registration and fDM. An important part of fDM analysis is the registration of parametric ADC maps acquired posttherapy to baseline ADC maps acquired before treatment. Image registration was performed using an automated linear affine coregistration algorithm (MIAMI Fuse; University of Michigan, Ann Arbor, Mich.) to maximize mutual information between the two temporally distinct three-dimensional data sets (see, e.g., Meyer C R, et al., Med Image Anal. 1997; 1:195-206; herein incorporated by reference in its entirety). Following registration and tumor segmentation of voxels within the tumor both at baseline and on day 4, fDM statistics were calculated. Firstly, ADC values of voxels posttherapy were plotted as a function of baseline ADC values. These tumor voxels were then further segmented into three regions based on an upper threshold and a lower threshold of ADC change. That is, tumor voxels that had increased ADC above the upper threshold were region I (VR, red voxels), voxels that had decreased below the lower threshold were region 2 (VB, blue voxels), and all other voxels were region 3 (VG, green voxels). A comparison between treatment groups and the measurement of fDM dose dependence was accomplished to optimize the sensitivity of the thresholds used (±0.4×10^−9 m^2/sec). Normalized volumes were then calculated for each animal, and group statistics were calculated.

9L tumor cells = test: MRI tumor volume and log cell kill of 9L tumors; assay type: in vivo, rat
Protocol: as §4, §5
(§6) Tumor Cell Kill Calculations and Statistical Analysis. The quantification of tumor cell kill from serially volumetric imaging data for each animal was accomplished as previously described (see, e.g., Ross B D, et al., Proc Natl Acad Sci USA. 1998; 95:7012-7017; herein incorporated by reference in its entirety). In brief, log(cell kill)[…]log10[Vpre/Vpost], where V represents the tumor volume from MRI. Linear least squares analysis was used to measure the statistical significance of trends in the BCNU dose dependence of fDM volume, animal survival, and log cell kill, and in the correlation of fDM response with survival and cell kill. When two groups were compared, a one-tailed Student's /test was used. Both linear least squares and Student's t test were performed using Microsoft Excel (Microsoft, Redmond, Wash.). To compare the median survival of all four animal groups, a log rank test was performed using Prism (GraphPad Software, Inc., San Diego, Calif.).

9L tumors [5] = test: Animal survival of rats with intracerebral 9L tumors; assay type: in vivo, rat; settings: for median survival: rat 9L tumors, control 7 days
Protocol: as §3, §4, §6

[6] = p<0.05, treated n=7 vs control n=5
[7] = 6.65 mg/kg BCNU, day 4 posttreatment
[8] = 26.6 mg/kg BCNU, day 4 posttreatment

## CC(=O)O[C@@]12CO[C@@H]1C[C@H](O)[C@@]1(C)C(=O)[C@H](O)C3=C(C)[C@@H](OC(=O)[C@H](O)[C@@H](NC(=O)OC(C)(C)C)c4ccccc4)C[C@@](O)([C@@H](OC(=O)c4ccccc4)[C@H]21)C3(C)C [docetaxel]
[1]; day 7 post initiation
  percentage of increased ADC (fDM), representative treated animal: 4.0%
[1]; day 14 post initiation
  percentage of increased ADC (fDM), representative treated animal: 30.0%
[1]; day 18 post initiation
  percentage of increased ADC (fDM), representative treated animal: 53.7%
[1]; [6]
  time at which fDM values differ significantly from control: 7 days post-treatment
[1]; three week treatment period, treated n=7
  mean changes in tumor diffusion by fDM: progressively increasing fDM diffusion changes
PC3^Luc tumor cells
  mean photon counts (luciferase activity): remained stable throughout the experiment
[2]; control tumors kept growing, treated tumors did not
  MRI tumor volumes, outcome of therapy: efficacious
[2]; [6]
  time at which tumor volumes differ significantly from control: 11 day post-treatment initiation

## O=NN(CCCl)C(=O)NCCCl [BCNU]
9L tumors [3]
  active mitoses in low-diffusion (VB) region: 153 mitoses in 10 high-power fields
  mitoses in VR region: 96 mitoses in 10 high-power fields
9L tumors [4]; 6.65 mg/kg BCNU, day 4, control −0.8±2.7%
  mean ADC change: 10.7±2.2%
9L tumors [4]; 6.65 mg/kg BCNU, day 4, control 3.9±1.7
  group mean VR: 10.6±2.8%
9L tumors [4]; [7]
  VB (tumor volume with decreased ADC), representative animal: 2.6%
  VR (tumor volume with increased ADC), representative animal: 7.7%
9L tumors [4]; 13.3 mg/kg BCNU, day 4
  mean ADC change (ΔADC): 22.9±5.3%
  group mean VR: 28.7±8.0%
9L tumors [4]; 13.3 mg/kg BCNU, day 4 posttreatment
  VR (tumor volume with increased ADC), representative animal: 30%
9L tumors [4]; 26.6 mg/kg BCNU, day 4
  mean ADC change: 49.0±9.7%
  group mean VR: 62.0 ±9.0%
9L tumors [4]; [8]
  VB (tumor volume with decreased ADC), representative animal: 0.3%
  VR (tumor volume with increased ADC), representative animal: 90.6%
9L tumors [4]; day 4 posttreatment, threshold ±0.4×10^−9 m^2/sec, P=5.8×10^−6
  best-fit gradient of VR as a function of drug dose: 2.30 ± 0.40 kg/mg
9L tumor cells; 6.65 mg/kg BCNU, control −0.09±0.04
  log cell kill: −0.25±0.08
9L tumor cells; 13.3 mg/kg BCNU
  log cell kill: 1.28±0.18
9L tumor cells; 26.6 mg/kg BCNU
  log cell kill: 3.22±0.51
9L tumor cells; 4 days posttreatment, 0-26.6 mg/kg BCNU, P=0.004
  gradient of least squares fit, normalized tumor volume as a function of dose: −4.0±1.3
9L tumors [5]; 6.65 mg/kg BCNU single i.p.
  median survival: 13 days posttherapy
9L tumors [5]; 13.3 mg/kg BCNU single i.p.
  median survival: 23.5 days posttherapy
9L tumors [5]; 26.6 mg/kg BCNU single i.p.
  median survival: 35.5 days posttherapy
9L tumors [5]; 6.65-26.6 mg/kg BCNU, log rank P<0.05
  animal survival relative to the control group: dose-dependent increase in animal survival

Source: patent publication US8768431B2, “Systems and methods for tissue imaging” (The Regents of the University of Michigan, priority 2007, dated 2014)
